This is an account of results in publication PMC6273226, “New Isoxazolidine-Conjugates of Quinazolinones—Synthesis, Antiviral and Cytostatic Activity” (Molecules, 2016).

Data set [1] deals with tobacco mosaic virus (TMV). Details: method as in PMID 23962399. The conditions noted are these: ref [30]; cited from earlier work.
Data set [2] deals with various cancer cell lines. Details: method as in doi:10.1002/hlca.201200433, PMID 21495659. The conditions noted are these: ref [31],[32]; cited from earlier work.
For data set [3], the system named is Vero cells. Details: method as in doi:10.1016/j.phytol.2015.02.007. The conditions noted are these: ref [33]; cited from earlier work.
The subject of data set [4] is influenza A virus. Details: method as in PMID 26017319. The conditions noted are these: ref [34]; cited from earlier work.

For the compound `O=c1[nH]c(Cc2ccc(O)cc2)nc2ccccc12` [Compound 1, 2-(4-hydroxybenzyl)quinazolin-4(3H)-one], the “inhibitory properties on the replication of tobacco mosaic virus (TMV)” value in data set [1] was “strong inhibitory properties”. Moreover, in data set [2], the “cytotoxicity toward various cancer cell lines” value is given as “significant cytotoxicity”.
On to `O=c1[nH]c(-c2c[nH]c3ccccc23)nc2ccccc12` [Compound 3], for which the “cytotoxicity against Vero cells” value in data set [3] is “cytotoxic”.
As a reminder, the melting point is the temperature of the solid-liquid transition. In turn, `O=C(c1ccc(O)cc1)c1nc2ccccc2c(=O)[nH]1` [Compound 2] gave a melting point of 67 to 68 °C. In addition, the “inhibitory properties on the replication of tobacco mosaic virus (TMV)” value in data set [1] is “only slightly active”.
On to `O=c1c2ccccc2nc(-c2ccncc2)n1CCCn1ccnc1` [Compound 6], for which the “activity against influenza A virus” value in data set [4] is listed as “slight activity”.
